In patent US9322034B2, “Compositions and methods for detecting and modulating cell death by a translation regulated gene expression system” (Wayne State University, priority 2007, dated 2016):
Where a SMILES comes first, the peptide text is derived from it. The star is where a group is joined. Cbz = O=C(OCc1ccccc1)*

How the values were obtained:
HEK293 cells = assay: Trypan blue staining of HEK293 cells treated with toxic agents; assay type: cell-based, human; settings: 50 micromolar, within 24 hr
[1] = tested on: HEK293 or HT1080 cells transduced with rAAV TRplp-EYFP / TRdm-EYFP; assay: TR-EYFP translation after rAAV transduction; assay type: cell-based, human; settings: 25 μM, 24 hr
Protocol: This example is to show delivery of the TRplp-EYFP and TRdm-EYFP cassettes to HEK293 and HT1080 cells using rAAV transduction. HEK293 or HT1080 cells are plated on flame sterilized glass slides and grown until 60-70% confluent (1-2 days), washed with L-DMEM (DMEM containing 2% fetal bovine serum), and infected with rAAV for 2 hr. The medium is replaced with DMEM, 10% FBS and the cells are incubated for 24 hours. Infected cells are treated with DMEM, 10% FBS supplemented with toxic levels of MG132 (25 μM) for 24 hr prior to direct microscopic or Western analysis as described above.

[2] = tested on: HEK293 cell pools expressing the fLUC-TRplp-EYFP, fLUC-TRdm-EYFP, pcuLf-TRplp-EYFP or pcuLf-TRdm-EYFP expression cassettes; assay: Cytotoxicity assay by Western blot, bicistronic TR cassettes; assay type: cell-based, human; settings: toxic doses
[3] = Pro-drug induced cell death, Trypan blue cell viability assay, control cells; assay type: cell-based; settings: human, HEK293 or HEK CMV-EYFP cells (control cells); any concentration (10 nM to 10 μM), 3 or 4 days; read-out: cells remaining Trypan blue viable
Protocol: (§1) In this example, HEK293, HEK CMV-EYFP, and HEK TRplp-TKsr39 cells are treated with various amounts of the pro-drug ganciclovir and tested for cell death after 4 days incubation using the Trypan blue staining assay. Cells are plated into 6-well trays, grown to 70-80% confluence, and treated with DMEM, 10% FBS supplemented with ganciclovir (0, 10 nM, 100 nM, 1 μM, 5 μM or 10 μM) for 4 days. Viable cell counts are performed at 3 days and 4 days post-incubation (FIG. 13).

[4] = tested on: HEK293 TRplp-TKsr39 cells; assay: Pro-drug induced cell death, Trypan blue cell viability assay; assay type: cell-based, human
Protocol: as §1

TKsr39 protein = TKsr39 protein (Human herpesvirus 1, UniProt Q9QNF7, A168F/F161L/I160F/L159I/L169M); settings: TKsr39 versus wildtype TK protein; cited from earlier work
Chain of TKsr39 protein (Q9QNF7 whole entry A168F/F161L/I160F/L159I/L169M, looked up): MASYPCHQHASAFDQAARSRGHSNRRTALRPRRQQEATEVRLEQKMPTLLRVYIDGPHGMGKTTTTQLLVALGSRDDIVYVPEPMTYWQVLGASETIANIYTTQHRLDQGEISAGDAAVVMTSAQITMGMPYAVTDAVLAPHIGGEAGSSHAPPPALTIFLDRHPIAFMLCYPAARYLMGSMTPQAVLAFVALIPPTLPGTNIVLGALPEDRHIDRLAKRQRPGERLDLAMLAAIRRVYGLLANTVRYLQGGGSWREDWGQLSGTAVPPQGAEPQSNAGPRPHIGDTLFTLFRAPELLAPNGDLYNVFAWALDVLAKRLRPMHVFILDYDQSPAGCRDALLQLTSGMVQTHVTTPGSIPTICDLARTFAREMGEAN

| Compound | cell death in HEK293 cells as determined by Trypan blue staining (HEK293 cells) | translation of EYFP in rAAV transduced cells compared to uninfected control cells [1] | EYFP translation in cell pools expressing the bicistronic TR cassettes (Western blot, FIG. 4) [2] | viability [3] [%] | cell viability compared to untreated cells ([4]; 10 nM, 3 days) | cell viability compared to untreated cells ([4]; 100 nM, 3 days) | viability at 10 µM ([4]; Homo sapiens, HEK293, 72 h, 3 days) [%] | viability at 0.01 µM ([4]; Homo sapiens, HEK293, 96 h, 10 nM, 4 days) [%] | viability at 10 µM ([4]; Homo sapiens, HEK293, 96 h, 4 days) [%] | prodrug binding of TKsr39 protein, higher than the wildtype protein (TKsr39 protein) [fold] |
| --- | --- | --- | --- | --- | --- | --- | --- | --- | --- | --- |
| CC(C)C[C@@H](C=O)NC(=O)[C@H](CC(C)C)NC(=O)[C@H](CC(C)C)NC(=O)OCc1ccccc1 [MG132] (Cbz-Leu-Leu-Leu-aldehyde) | complete cell death | exhibit selective translation of the fluorescent EYFP protein | induce EYFP translation | – | – | – | – | – | – | – |
| Nc1nc(O)c2ncn(COC(CO)CO)c2n1 [ganciclovir] | – | – | – | 98 to 100 | does not exhibit any decrease in cell viability | slight decrease | 86 | 99.7 | 33.7 | 83 |
